PMC4501791, “Molecular Design, Synthesis and Trypanocidal Activity of Dipeptidyl Nitriles as Cruzain Inhibitors” (PLoS Neglected Tropical Diseases, 2015)
Where two headings read alike, the source gives them in different places.

Tests used:
cruzain = target: T1, cruzain (Trypanosoma cruzi, UniProt P25779); assay: biochemical; conditions: 37°C, pH 5.5, substrate Z-FR-AMC;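 further: fluorometric read-out of substrate hydrolysis at excitation 355 nm and emission 460 nm, initial rates over 5 min, Ki from nonlinear kinetic fits, duplicate runs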
T1 construct: made in house
T1 sequence (P25779 123-337 limits assumed): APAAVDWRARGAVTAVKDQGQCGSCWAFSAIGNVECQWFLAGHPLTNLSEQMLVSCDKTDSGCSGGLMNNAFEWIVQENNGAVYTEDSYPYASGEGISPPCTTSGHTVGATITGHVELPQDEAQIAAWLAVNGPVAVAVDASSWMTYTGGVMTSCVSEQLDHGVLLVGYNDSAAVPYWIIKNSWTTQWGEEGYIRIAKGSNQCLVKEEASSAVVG
Description: Enzyme kinetic assays were carried out at 37°C in 200 L of a solution containing 100 mM acetate buffer pH 5.5, 300 mM NaCl, 5 mM DTT (dithiothreitol), 5% v/v DMSO (dimethyl sulfoxide), 0.01% v/v Triton X-100 and 0.15 nM cruzain, using Corning® 96-well black flat bottom microplates. The rate of the reaction was monitored using a Biotek Synergy HT plate reader through the fluorescence emission at 460 nm (excitation at 355 nm) due to the hydrolysis of the substrate Z-Phe-Arg-7-amido-4-methylcoumarin (Z-FR-AMC, Sigma-Aldrich). The enzyme stock aliquot was rapidly thawed at 37°C and kept on ice until activation, in which it was incubated for 20 min. in the assay buffer (100 mM acetate pH 5.5 and 5 mM DTT) followed by additional 2 min. incubation with inhibitors before the reaction was started by the addition of the substrate.
Visual inspection and a pre-reading of plate wells were performed to check for possible precipitation and background fluorescence, respectively. Fluorescence emission spectra were also recorded for all inhibitors, using the same excitation wavelength (355 nm) as for the fluorometric assay. […] The reaction was started by the addition of varying concentrations of the substrate and the wells monitored for a total of 5 minutes of reaction. The initial velocities of the substrate hydrolysis under first-order reaction were calculated by Gen5 Biotek software based on the linear-regression coefficient from the fit to data of Relative Fluorescence Unit (mRFU) as a function of time (min).
Each experiment was performed in duplicates for each compound being tested. […] All inhibitors were evaluated in two different concentrations, which were chosen based on a previous screening (percentage of inhibition) at 1.7 μM substrate (~K M). […] SigmaPlot (v. 10.0) was employed for the non-linear fit and the kinetic parameters determination.

[1] = tested on: T. cruzi Tulahuen strain amastigotes; assay: Trypanocidal activity against amastigote forms in LLCMK2 cells, Tulahuen strain; assay type: cell-based; conditions: Trypanosoma cruzi; for killing at 32 µM: LLC-MK2, 120 h, amastigote lysis, 5 days, read-out: %cell lysis at 32 μM ama Tula; for EC50: LLC-MK2
Description: (§1) The assays against amastigote forms were performed in LLCMK2 cells. Previously, the cells were cultivated in 96-wells microplates (10^3 cells/well). […] After this, the microplates were incubated at 37°C, in CO2 atmosphere, for 5 days. Then, 10 μL of FluoReporter lacZ/Galactosidase Quantitative Kit (Life Technologies) were added and after 30 minutes the fluorometric reaction was read in a microplate reader (Synergy H1, Biotek) at 386 nm excitation and 448 nm emission. For both assays the percentage of parasite lysis was determined from the following formula: %lysis = 100 –{[(X-PC)/(PC-NC)]x100}, where the optical density values of the samples (X), the positive controls (PC) and negative controls (NC) were used. Culture medium was used as positive control (PC) and medium with 0.6% DMSO (v/v) as negative control (NC). All assays were performed in triplicate with two independent experiments.

[2] = tested on: T. cruzi CL-Brener strain amastigotes; assay: Trypanocidal activity against amastigote forms in LLCMK2 cells, CL-Brener strain; assay type: cell-based; conditions: Trypanosoma cruzi, LLC-MK2, 120 h, amastigote lysis, 5 days, read-out: %cell lysis at 32 μM ama Brener
Description: as §1

LLCMK2 cells = assay: Lysis of LLCMK2 host cells; assay type: cell-based; conditions: Macaca mulatta, LLC-MK2, 32 μM, read-out: %cell lysis at 32 μM LLCMK2
[3] = tested on: Balb-c 3T3 clone A31 cells; assay: MTT cytotoxicity assay using mouse fibroblast cells; assay type: cell-based; conditions: 250 μM, Balb-c 3T3 cells, MTT, 24, 48 and 72 h, benznidazole as control
Description: All compounds were subjected to the MTT colorimetric assay using Balb-c 3T3 clone A31 cells (mouse fibroblast cells) acquired from the Rio de Janeiro Cell Bank (BCRJ code 0047). Inhibition values were determined in the cell-based assay as previously described. Briefly, cells were cultured at 37°C in an atmosphere of 5% CO2 using DMEM medium (Cultilab, Campinas-SP, Brazil) supplemented with 3.5 g glucose (Sigma-Aldrich), 1% penicillin/streptomycin solution and 10% FBS (Cultilab). Cells were plated at a concentration of 10^5 cell/mL in 96-well plates and incubated for 24 h. All compounds were freshly diluted from 50 mM DMSO stock solutions to obtain the final concentration of 250 μM and added to each well by replacing the medium. The cell viability was assessed during 24, 48 and 72 h using the MTT (Sigma-Aldrich) reagent, with an incubation time of 3 h. […] The readout was obtained using Biotek Synergy HT plate reader at 570 nm. Benznidazole was used as control. This assay was done in quatruplicate in two independent experiments. Statistical analyses were made in GraphPad Prism 5. Dunnett’s multiple comparison tests were performed using benznidazole as the standard compound for the ordinary ANOVA analysis using 95% confidence interval.

[4] = Lysis of LLCMK2 host cells; assay type: cell-based; conditions: rhesus monkey, footnote of Table 3, cell line not stated
[5] = amastigote, T. cruzi Tulahuen strain, read-out: pEC50 ama Tula (converted)

Question: For `N#CCNC(=O)[C@H](Cc1c[nH]c2ccccc12)NC(=O)c1ccccc1` [Compound 12, (2S)-N-(cyanomethyl)-3-(1H-indol-3-yl)-2-(phenylformamido)propanamide], which Ki (cruzain) is on record?
Answer: 0.398 µM

Question: And the killing at 32 µM ([1]; T. cruzi Tulahuen strain)?
Answer: 60 ± 5%

Question: What about the EC50 ([1]; against the parasite (amastigote, Tulahuen strain), read-out: EC50) of the same compound?
Answer: 28 µM

Question: And the EC50 [1, 5]?
Answer: 25.1 µM

Question: What about the killing at 32 µM [2] of the same compound?
Answer: 17 ± 1%

Question: And the cytotoxicity at 32 µM (LLCMK2 cells)?
Answer: 34 ± 5%

Question: And the cytotoxicity [3]?
Answer: same range of cytotoxicity when compared to benznidazole

Question: What about the melting point of the same compound?
Answer: 158 to 159 °C

Question: Which killing at 32 µM ([1]; T. cruzi Tulahuen strain) does the source give for `O=C(Cn1ccnc1[N+](=O)[O-])NCc1ccccc1` [Benznidazole, reference compound] here?
Answer: 78 ± 3%

Question: And the EC50 [1, 5]?
Answer: 1.58 µM

Question: What about the killing at 32 µM [2] of the same compound?
Answer: 29 ± 2%

Question: And the CC50 at 5 days [4]?
Answer: 353 µM

Question: What about the cytotoxicity at 32 µM (LLCMK2 cells) of the same compound?
Answer: 31 ± 2%
